Source: patent US20230242474A1, “LIPID COMPOUND AND THE COMPOSITION THEREOF” (GUANGZHOU RIBOBIO CO., LTD, priority 2020, published 2023)

Key:
[1] = format: physicochemical; details: Table 1; for Size (nm): lipid nanoparticle of the ionizable lipid (ionizable lipid/phospholipid/PEG lipid/structural lipid 50/10/1.5/38.5 %) with mRNA; for Encapsulated percentage (%) / PDI: lipid nanoparticle of the ionizable lipid with mRNA
[2] = test system: BALB/c mice; assay: Transfection efficiency: in vivo bioluminescence of luciferase mRNA encapsulated by different LNP; details: for Total photons number, Leg: intramuscular injection; for Average fluorescence intensity, Leg (intramuscular injection) / Average fluorescence intensity, Liver (tail vein injection): 10 μg/mice
Experimental: All animals were kept in adaptive feeding for more than 7 days before experiments, free to uptake food and drink water during experimental period, illumination 12/12 h alternating light and dark, room temperature was 20-26° C., humidity was 40-70%.
Experimental method: female BALB/c mice, encapsulated luciferase mRNA with different LNP by four different administrations which included subcutaneous injection (under the armpit), tail vein injection, intraperitoneal injection, intramuscular injection (the tibialis anterior muscle of mouse hind leg); 3, 6, 24, 48 h after administration, applied in vivo fluorescence imaging system (brand: Bruker, model: XTREME) for bioluminescence detection, the specific steps were as follows: substrate preparation: took appropriate amount of substrate Luciferin (brand: Promega) and added saline to make a 10 mg/ml solution, avoided light, injected 100 μl solution into each mouse intraperitoneally. […] Put the anesthetized mouse into machine, set the bioluminescence setting and took the photos, captured the photograph and then adjusted the upper and lower values of photograph, then collected data on the concentrated distribution of fluorescence (e.g., fluorescence intensity, average photons number, and total photons number) and processed data. Statistical analysis: the in vivo imaging outcome were shown in the fluorescence intensity or average of total photons number of different animal in the same tested group, which were used to judge whether the fluorescence intensity or total photon number of luciferase mRNA encapsulated by different LNP were high or low.
The fluorescence intensity and total photons number reflects the transfection efficiency of LNP, the value is higher, referring to the efficiency of delivering encapsulated substance into cell by LNP is higher.

CCCCCCCCC(CCCCCCCC)OC(=O)CCCCCCCN(CCO)CCCCCCCC(=O)OC(COCCCCCC)COCCCCCC [A13]
Size (nm) [1]: 96.87 nm | Encapsulated percentage (%) [1]: 95.51% | PDI [1]: 0.146 | Total photons number, Leg ([2]; 1 μg/ mice, 6 h): 3.66E+09

CCCCCCOCC(COCCCCCC)OC(=O)CCCCCCCN(C)CCCNc1c(NCCCNc2c(NCCCN(C)CCCCCCCC(=O)OC(COCCCCCC)COCCCCCC)c(=O)c2=O)c(=O)c1=O [A32]
Size (nm) [1]: 128.7 nm | Encapsulated percentage (%) [1]: 94.19% | PDI [1]: 0.07

CCCCCCCCCCCOC(=O)CCCCCN(CCCO)CCCCCCCC(=O)OCC(COCCCCCC)(COCCCCCC)COCCCCCC [A22]
Size (nm) [1]: 86.19 nm | Encapsulated percentage (%) [1]: 96.85% | PDI [1]: 0.049 | Total photons number, Leg ([2]; 5 μg/mice, 3 h): 4.16E+09 | Total photons number, Leg ([2]; 5 μg/mice, 6 h): 5.74E+09 | Total photons number, Leg ([2]; 5 μg/mice, 24 h): 1.24E+09

CCCCCCCCCCCOC(=O)CCCCCN(CCCO)CCCCCCCC(=O)OC(CCCCCCCC)CCCCCCCC [A4, reference compound]
Size (nm) [1]: 131.1 nm | Encapsulated percentage (%) [1]: 79.24% | PDI [1]: 0.110 | Average fluorescence intensity, Leg (intramuscular injection) ([2]; 3 h after administration): 1847.5 | Average fluorescence intensity, Liver (tail vein injection) ([2]; 3 h after administration): 7962.6 | Average fluorescence intensity, Leg (intramuscular injection) ([2]; 6 h after administration): 1956.2 | Average fluorescence intensity, Liver (tail vein injection) ([2]; 6 h after administration): 7745.9 | Average fluorescence intensity, Leg (intramuscular injection) ([2]; 24 h after administration): 1009.7 | Average fluorescence intensity, Liver (tail vein injection) ([2]; 24 h after administration): 326.4

CCCCCCCCC(CCCCCCCC)OC(=O)CCCCCCCN(CCCO)CCCCCCCC(=O)OC(CCCCCCCC)CCCCCCCC [A5]
Size (nm) [1]: 135.0 nm | Encapsulated percentage (%) [1]: 90.11% | PDI [1]: 0.090 | Average fluorescence intensity, Leg (intramuscular injection) ([2]; 3 h after administration): 675.7 | Average fluorescence intensity, Liver (tail vein injection) ([2]; 3 h after administration): 2231.2 | Average fluorescence intensity, Leg (intramuscular injection) ([2]; 6 h after administration): 1566.4 | Average fluorescence intensity, Liver (tail vein injection) ([2]; 6 h after administration): 3738.2 | Average fluorescence intensity, Leg (intramuscular injection) ([2]; 24 h after administration): 892.2 | Average fluorescence intensity, Liver (tail vein injection) ([2]; 24 h after administration): 73.5

CCCCCCCCCCCOC(=O)CCCCCN(CCCO)CCCCCC(=O)OCCCCCCCCCCC [A6]
Size (nm) [1]: 171.5 nm | Encapsulated percentage (%) [1]: 87.09% | PDI [1]: 0.190 | Average fluorescence intensity, Leg (intramuscular injection) ([2]; 3 h after administration): 60.3 | Average fluorescence intensity, Liver (tail vein injection) ([2]; 3 h after administration): 11.9 | Average fluorescence intensity, Leg (intramuscular injection) ([2]; 6 h after administration): 40.9 | Average fluorescence intensity, Liver (tail vein injection) ([2]; 6 h after administration): 9.0 | Average fluorescence intensity, Leg (intramuscular injection) ([2]; 24 h after administration): 19.1 | Average fluorescence intensity, Liver (tail vein injection) ([2]; 24 h after administration): 12.2

CCCCC/C=C/C/C=C/CCCCCCCCN(CCCO)CCCCCCCC(=O)OC(COCCCCCC)COCCCCCC [A15]
Total photons number, Leg ([2]; 1 μg/ mice, 6 h): 8.78E+08

CCCCCCOCC(COCCCCCC)NC(=O)CCCCCCCN(CCCO)CCCCCCCC(=O)OC(COCCCCCC)COCCCCCC [A25]
Size (nm) [1]: 105.3 nm | Encapsulated percentage (%) [1]: 83.60% | PDI [1]: 0.094 | Total photons number, Leg ([2]; 5 μg/mice, 3 h): 4.23E+08 | Total photons number, Leg ([2]; 5 μg/mice, 6 h): 2.49E+08 | Total photons number, Leg ([2]; 5 μg/mice, 24 h): 9.50E+07

CCCCC/C=C/C/C=C/CCCCCCCCN(CCO)CCCCCCCC(=O)OCC(COCCCCCC)(COCCCCCC)COCCCCCC [A20]
Size (nm) [1]: 77.17 nm | Encapsulated percentage (%) [1]: 97.09% | PDI [1]: 0.121 | Total photons number, Leg ([2]; 5 μg/mice, 3 h): 5.99E+08 | Total photons number, Leg ([2]; 5 μg/mice, 6 h): 5.65E+08 | Total photons number, Leg ([2]; 5 μg/mice, 24 h): 2.03E+08

CCCCCCCCOCC(COCCCCCCCC)OC(=O)CCCCCCCN(C)CCCNc1c(NCCCN(C)CCCCCCCC(=O)OC(COCCCCCCCC)COCCCCCCCC)c(=O)c1=O [A31]
Total photons number, Leg ([2]; 1 μg/ mice, 3 h): 1.58E+08 | Total photons number, Leg ([2]; 1 μg/ mice, 6 h): 2.65E+08 | Total photons number, Leg ([2]; 1 μg/ mice, 24 h): 8.43E+07

CCCCCCOCC(COCCCCCC)(COCCCCCC)COC(=O)CCCCCCCN(CCO)CCCCCCCC(=O)OCC(COCCCCCC)(COCCCCCC)COCCCCCC [A24]
Size (nm) [1]: 78.69 nm | Encapsulated percentage (%) [1]: 96.77% | Total photons number, Leg ([2]; 5 μg/mice, 3 h): 1.94E+08 | Total photons number, Leg ([2]; 5 μg/mice, 6 h): 1.56E+08 | Total photons number, Leg ([2]; 5 μg/mice, 24 h): 6.31E+07

CCCCCCCCCCCOC(=O)CCCCCN(CCO)CCCCCCCC(=O)OCC(COCCCCCC)(COCCCCCC)COCCCCCC [A23]
Size (nm) [1]: 74.63 nm | Encapsulated percentage (%) [1]: 97.41% | PDI [1]: 0.054 | Total photons number, Leg ([2]; 5 μg/mice, 3 h): 4.39E+09 | Total photons number, Leg ([2]; 5 μg/mice, 6 h): 2.68E+09 | Total photons number, Leg ([2]; 5 μg/mice, 24 h): 8.00E+08

CCCCCCCCC(CCCCCCCC)OC(=O)CCCCCCCN(CCCO)CCCCCCCC(=O)OC(COCCCCCC)COCCCCCC [A17]
Size (nm) [1]: 109.5 nm | Encapsulated percentage (%) [1]: 92.99% | PDI [1]: 0.1037

CCCCCCCCCCCOC(=O)CCCCCN(CCO)CCCCCCCC(=O)OC(COCCCCCC)COCCCCCC [A11]
Total photons number, Leg ([2]; 1 μg/ mice, 6 h): 1.33E+09

CCCCC/C=C/C/C=C/CCCCCCCCN(CCO)CCCCCC(=O)OCCCCCCCCCCC [A9]
Size (nm) [1]: 129.4 nm | Encapsulated percentage (%) [1]: 93.35% | PDI [1]: 0.120 | Average fluorescence intensity, Leg (intramuscular injection) ([2]; 3 h after administration): 461.4 | Average fluorescence intensity, Liver (tail vein injection) ([2]; 3 h after administration): 198.9 | Average fluorescence intensity, Leg (intramuscular injection) ([2]; 6 h after administration): 432.0 | Average fluorescence intensity, Liver (tail vein injection) ([2]; 6 h after administration): 252.7 | Average fluorescence intensity, Leg (intramuscular injection) ([2]; 24 h after administration): 178.3 | Average fluorescence intensity, Liver (tail vein injection) ([2]; 24 h after administration): 14.6

CCCCCCOCC(COCCCCCC)OC(=O)CCCCCCCN(CCCCCCCC(=O)OC(COCCCCCC)COCCCCCC)CCCNc1c(NCCCNc2c(NCCCN(CCCCCCCC(=O)OC(COCCCCCC)COCCCCCC)CCCCCCCC(=O)OC(COCCCCCC)COCCCCCC)c(=O)c2=O)c(=O)c1=O [A30]
Size (nm) [1]: 110.1 nm | Encapsulated percentage (%) [1]: 98.14% | PDI [1]: 0.28

CCCCCCCCCCCCCCCCN(CCO)CCCCCC(=O)OCCCCCCCCCCC [A1]
Size (nm) [1]: 127.7 nm | Encapsulated percentage (%) [1]: 88.79% | PDI [1]: 0.090 | Average fluorescence intensity, Leg (intramuscular injection) ([2]; 3 h after administration): 61.3 | Average fluorescence intensity, Liver (tail vein injection) ([2]; 3 h after administration): 20.4 | Average fluorescence intensity, Leg (intramuscular injection) ([2]; 6 h after administration): 80.6 | Average fluorescence intensity, Liver (tail vein injection) ([2]; 6 h after administration): 27.80 | Average fluorescence intensity, Leg (intramuscular injection) ([2]; 24 h after administration): 38.9 | Average fluorescence intensity, Liver (tail vein injection) ([2]; 24 h after administration): 15.9

CCCCC/C=C/C/C=C/CCCCCCCCN(CCCO)CCCCCCCC(=O)OCC(COCCCCCC)(COCCCCCC)COCCCCCC [A21]
Size (nm) [1]: 78.3 nm | Encapsulated percentage (%) [1]: 97.20% | PDI [1]: 0.098 | Total photons number, Leg ([2]; 5 μg/mice, 3 h): 9.07E+08 | Total photons number, Leg ([2]; 5 μg/mice, 6 h): 7.11E+08 | Total photons number, Leg ([2]; 5 μg/mice, 24 h): 1.62E+08

CCCCC/C=C/C/C=C/CCCCCCCCN(CCO)CCCCCCCC(=O)OC(COCCCCCC)COCCCCCC [A10]
Size (nm) [1]: 121.6 nm | Encapsulated percentage (%) [1]: 82.65% | PDI [1]: 0.104 | Total photons number, Leg ([2]; 1 μg/ mice, 6 h): 3.17E+09

CCCCCCOCC(COCCCCCC)OC(=O)CCCCCCCN(CCCCCCCC(=O)OC(COCCCCCC)COCCCCCC)CCCNc1c(NCCCNc2c(NC)c(=O)c2=O)c(=O)c1=O [A29]
Size (nm) [1]: 126.4 nm | Encapsulated percentage (%) [1]: 89.98% | PDI [1]: 0.05

CCCCCCOCC(COCCCCCC)OC(=O)CCCCCCCN(CCCO)CCCCCCCCCCCC(=O)OC(COCC)COCC [A26]
Size (nm) [1]: 120.3 nm | Encapsulated percentage (%) [1]: 83.56% | PDI [1]: 0.064
